Earlier results as cited in US6270797A (USV Limited, priority 2000, dated 2001).

Experiments:
[1] = test system: beta cells of pancreatic-islet tissue

For `Cc1cnc(C(=O)NCCc2ccc(S(=O)(=O)NC(=O)NC3CCCCC3)cc2)cn1` [Glipizide, 1-cyclohexyl-3-[[p-[2-(5-methylpyrazinecarboxamido)ethyl]phenyl]sulfonyl]urea], the “insulin secretion from the beta cells of pancreatic-islet tissue” value [1] is given as “stimulates insulin secretion” and the “number of insulin receptors” value (insulin receptors) is given as “may increase the number of insulin receptors”.
